Our source for the IC50 values is ChEMBL document CHEMBL1149890, “Brianodins A-D, briarane-type diterpenoids from soft coral Pachyclavularia sp” (J Nat Prod, 2008).

The structures appear in SMILES notation. Values after ≈ are worked out from the molar mass of the structure shown.

Assay [1] has as its system L1210. Briefly: Cytotoxicity against mouse L1210 cells. Type of assay: functional, cell-based.
The test system of assay [2] is KB. Briefly: Cytotoxicity against human KB cells. In kind it is functional, cell-based.

For orientation: IC50 means the point on the concentration scale where inhibition reaches its midpoint. A higher IC50 goes with weaker potency in that assay. `CC(=O)O[C@@H]1C/C(C)=C\[C@@H]2OC(=O)[C@]3(C)O[C@]23[C@@H](OC(C)=O)[C@H]2[C@](C)(O)[C@H](OC(C)=O)C=C[C@]2(C)[C@@H]1O` [BRIANODIN A]: the IC50 was 1.8 µg/mL (≈ 3.44 µM) in assay [1] and 4.3 µg/mL (≈ 8.23 µM) in assay [2].

In turn, `CC(=O)O[C@@H]1[C@H](O)[C@@H](OC(C)=O)/C(C)=C\[C@@H]2OC(=O)[C@@](C)(O)[C@@]2(O)[C@@H](OC(C)=O)[C@H]2[C@](C)(O)[C@H](OC(C)=O)C=C[C@]12C` [BRIANODIN B] displayed an IC50 in assay [2] of over 10 µg/mL.

Regarding `CC(=O)O[C@@H]1[C@H](O)[C@@H](OC(C)=O)/C(C)=C\[C@@H]2OC(=O)[C@@](C)(O)[C@@]2(O)[C@@H](OC(C)=O)[C@H]2[C@](C)(O)[C@H](O)C=C[C@]12C` [BRIANODIN C], the IC50 in assay [2] is over 10 µg/mL.

`CC(=O)O[C@@H]1C/C(C)=C\[C@@H]2OC(=O)[C@@](C)(O)[C@@]2(O)[C@@H](OC(C)=O)[C@H]2[C@](C)(O)[C@H](O)C=C[C@]2(C)[C@@H]1O` [BRIANODIN D]: the IC50 in assay [2] was over 10 µg/mL.
